In patent publication US6680025B2, “Device and method for photoactivation” (Cerus Corporation, priority 1989, dated 2004):

Assays:
[1] = system: tRNA; experiment: Photobinding of BIOMIP to tRNA, biotin detection (BluGene); assay type: binding; settings: 100 μg/ml, irradiated 30 minutes CE-III; no signal from unirradiated controls
Method: This example describes photobinding of ^3H-AMIP, ^3H-AMDMIP and BIOMIP to RNA. A tRNA stock was prepared at a concentration of 765 μg/ml in 1×TE/10 mM NaCl. Appropriate amounts of each compound were prepared in separate reaction vessels such that upon addition of 200 μl of the tRNA solution (153 μg) the final concentration of each compound was 100 μg/ml. […] were used in the experiment; the BIOMIP used was unlabelled. Each reaction vessel was then irradiated for 30 minutes at 25° C. in the CE-III device. Identical unirradiated reaction mixtures were used as controls for each compound. Following irradiation, each mixture was extracted with CHCl3 (4×200 μl ) then precipitated (×2). The pellets were resuspended in 1×TE and the binding levels determined as follows. For the two labelled compounds (^3H-AMDMIP and ^3H-AMIP), the nucleic acid concentration was determined optically and radioactivity measured by scintillation counting of aliquots of the stock solutions. Binding of the compounds was then calculated to be as follows:
To determine if binding of BIOMIP to tRNA has occurred, it was necessary to use a non-radioactive format which detected the biotin moiety on the compound. A commercial kit (“BluGene”; BRL) was used for this purpose. The kit instructions were followed for detection of both the control DNA (supplied with the kit) and BIOMIP treated tRNA. […]

[2] = system: PCR product (primer pair SK-38/39 analogs); experiment: Post-amplification sterilization with AMT; assay type: biochemical; settings: AMT 100 μg/ml, irradiated CE-III; 10^4 to 10^10 copies carried over; 30 cycles
Method: A PCR sample is prepared for amplification with the following changes. Instead of AMDMIP, AMT is added prior to amplification at a concentration of 100 μg/ml. Instead of primer pair SK-38/39, the biotinylated analogs, in which biotin has been appended to the 5′ end of one or both primers via an intervening tetraethylenglycol bridge (ester linkage to the biotin), are used. Following 30 cycles of PCR, the reaction vessel is exposed to 300-400 nm light on the CE-III device. Following irradiation, the PCR reaction vessel is opened and the PCR product removed. Free primer is then removed by spinning the PCR reaction mix through a Centricon 100 (Amicon Division, W R Grace & Co., Danvers, Mass.). […] After immobilization, the PCR product is detected with a commercially available biotin detection systems (BluGene Detection System; catalog #8179 SA; BRL). […]
PCR reagents are added and the samples reamplified for 30 cycles, and α-^32P-dCTP is present during the amplification. Following PCR, the reamplified samples are analyzed by denaturing PAGE as described above.
In a third method, a solution of AMT (100 μg/ml) is prepared and irradiated for 15 minutes on the CE-III device. […] The mix is then amplified for 30 cycles in the presence of α-^32P-dCTP, then analyzed by PAGE, as above. […]

Molecule	binding to tRNA by biotin detection [1]	reamplification of treated PCR product [2]
5-N-(N,N′-Dimethyl-(6-{biotinamido}-hexanoate)-1,6-hexanediamine])-methyl-isopsoralen [BIOMIP]	covalently bound to the tRNA	
Cc1oc2c(C)c3oc(=O)cc(C)c3cc2c1CN [AMT, 4′-aminomethyl-4,5′,8-trimethylpsoralen]		does not reamplify
